# In patent US20160271118A1, “PHARMACEUTICAL COMPOSITIONS COMPRISING ANTIBACTERIAL AGENTS” (priority 2013, published 2016):
# Where two headings read alike, the source gives them in different places.
# What was measured:
# Assay type in all cases: cell-based, Acinetobacter baumannii
# A. baumannii = assay: Broth microdilution MIC (CLSI), A. baumannii strains overall; conditions: used alone; for MIC: Acinetobacter baumannii, A. baumannii strains producing OXA 23, OXA 24 or OXA 27
# Procedure: (§1) The broth microdilution Minimum Inhibitory Concentration (MIC) studies were conducted as per the CLSI recommendations (Clinical and Laboratory Standards Institute (CLSI), Performance Standards for Antimicrobial Susceptibility Testing, 20th Informational Supplement, M 100-S20, Volume 30, No. 1, 2010). The media utilized was Brain Heart Infusion broth (BD, USA). In brief, 50 mcl of serial double dilutions of the antibacterial agents in Brain Heart Infusion media were dispensed in 96 well microtiter plate. 50 mcl of culture suspension was added to each pre dispensed drug dilution such that the final bacterial inoculum density was 2-8×10^5 CFU/ml. The plates were incubated for 20-24 hours at 35±2° C. and observed visually for growth or no growth based on the turbidity. Three specific compounds generally represented by a general Formula (I) were used and are as follows: • 1. (2S,5R)-7-oxo-N-[(3S)-pyrrolidin-3-yloxy]-6-(sulfooxy)-1,6-diazabicyclo[3.2.1]octane-2-carboxamide (Compound A),
# (§2) The results of antibacterial activity of various compounds when used alone and in combinations according to the inventions are shown in Tables 1 and 2 respectively. The strains of A. baumannii used for the study were those which produced carbapenem hydrolyzing class D beta-lactamase enzymes (OXA 23, OXA 24 or OXA 27). […] In general, the MIC values of Sulbactam and Cefepime reduced when these were combined with Compounds A, B and C.
# A. baumannii NCTC 13301 = assay: Broth microdilution MIC (CLSI), A. baumannii NCTC 13301; conditions: for MIC: Acinetobacter baumannii, NCTC13301; for MIC of Sulbactam in combination of compound: compound at 4 mcg/ml; for MIC of Cefepime in combination of compound: compound at 8 mcg/ml
# Procedure: as §1, §2
# A. baumannii NCTC 13304 = assay: Broth microdilution MIC (CLSI), A. baumannii NCTC 13304; conditions: for MIC: Acinetobacter baumannii, NCTC13304; for MIC of Sulbactam in combination of compound: compound at 4 mcg/ml; for MIC of Cefepime in combination of compound: compound at 8 mcg/ml
# Procedure: as §1, §2
# A. baumannii NCTC 13302 = assay: Broth microdilution MIC (CLSI), A. baumannii NCTC 13302; conditions: for MIC: Acinetobacter baumannii, NCTC13302; for MIC of Sulbactam in combination of compound: compound at 4 mcg/ml; for MIC of Cefepime in combination of compound: compound at 8 mcg/ml
# Procedure: as §1, §2
# [1] = compound alone, A. baumannii NCTC 13301 (OXA 51, OXA 23), read-out: MIC
# [2] = compound alone, A. baumannii NCTC 13304 (OXA 51, OXA 27), read-out: MIC
# [3] = compound alone, A. baumannii NCTC 13302 (OXA 51, OXA 24), read-out: MIC
# [4] = A. baumannii NCTC 13301 (OXA 51, OXA 23)
# [5] = A. baumannii NCTC 13304 (OXA 51, OXA 27)
# [6] = A. baumannii NCTC 13302 (OXA 51, OXA 24)
Compound,antibacterial activity against A. baumannii (A. baumannii),MIC (A. baumannii NCTC 13301; [1]) [µg/mL],MIC (A. baumannii NCTC 13304; [2]) [µg/mL],MIC (A. baumannii NCTC 13302; [3]) [µg/mL],MIC (A. baumannii) [µg/mL],MIC of Sulbactam in combination of compound (A. baumannii NCTC 13301; [4]) [µg/mL],MIC of Cefepime in combination of compound (A. baumannii NCTC 13301; [4]) [µg/mL],MIC of Sulbactam in combination of compound (A. baumannii NCTC 13304; [5]) [µg/mL],MIC of Cefepime in combination of compound (A. baumannii NCTC 13304; [5]) [µg/mL],MIC of Sulbactam in combination of compound (A. baumannii NCTC 13302; [6]) [µg/mL],MIC of Cefepime in combination of compound (A. baumannii NCTC 13302; [6]) [µg/mL],MIC (A. baumannii NCTC 13301) [µg/mL],MIC (A. baumannii NCTC 13304) [µg/mL],MIC (A. baumannii NCTC 13302) [µg/mL]
"CO/N=C(\C(=O)N[C@@H]1C(=O)N2C(C(=O)[O-])=C(C[N+]3(C)CCCC3)CS[C@H]12)c1csc(N)n1 [Cefepime, reference compound]",poor antibacterial activity,> 32,32,32,,,,,,,,,,
"O=C(NO[C@H]1CCNC1)[C@@H]1CC[C@@H]2CN1C(=O)N2OS(=O)(=O)O [Compound A, (2S,5R)-7-oxo-N-[(3S)-pyrrolidin-3-yloxy]-6-(sulfooxy)-1,6-diazabicyclo[3.2.1]octane-2-carboxamide]",,> 128,> 128,> 128,> 128,4,16,8,16,8,16,,,
"O=C(NOC[C@@H]1CCCN1)[C@@H]1CC[C@@H]2CN1C(=O)N2OS(=O)(=O)O [Compound B, (2S,5R)-7-oxo-N-[(2S)-pyrrolidin-2-ylmethyloxy]-6-(sulfooxy)-1,6-diazabicyclo[3.2.1]octane-2-carboxamide]",,> 128,> 128,> 128,> 128,4,16,4,8,4,16,,,
"O=C(NOC[C@@H]1CCCCN1)[C@@H]1CC[C@@H]2CN1C(=O)N2OS(=O)(=O)O [Compound C, (2S,5R)-7-oxo-N-[(2S)-piperidine-2-ylmethyloxy]-6-(sulfooxy)-1,6-diazabicyclo[3.2.1]octane-2-carboxamide]",,> 128,> 128,> 128,> 128,4,32,8,8,8,16,,,
"C[C@@H](O)[C@H]1C(=O)N2C(C(=O)O)=C(S[C@@H]3CN[C@H](C(=O)N(C)C)C3)[C@H](C)[C@H]12 [Meropenem, reference compound]",poor antibacterial activity,32,> 32,> 32,,,,,,,,,,
"CC1(C)[C@H](C(=O)O)N2C(=O)C[C@H]2S1(=O)=O [Sulbactam, reference compound]",poor antibacterial activity,,,,,,,,,,,8,32,16
